Consider five compounds from US10023565B2, “N,N′ substituted piperidinamine compounds, and preparation method and usage thereof” (Institute of Pharmacology and Toxicology Academy of …, priority 2013, dated 2018).

In general, IC50 refers to the point on the concentration scale where inhibition reaches its midpoint. A high value points to weaker potency in that assay.

What all share (assay type): cell-based
Data set [1] concerns SK/Lap^R1.0. The data set is described as follows: Antitumor bioactivity evaluation, breast cancer cells (ATPlite). To be noted: Homo sapiens; test sample 5 μM, 72 hours; read-out: Inhibitory Rate % SKLap^R1.0. The essentials: (§1)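 ATPlite luminescence read-out after 72 h exposure at 37 °C; cell survival expressed as % of solvent-matched control RLU. Compound tested at 5 μM final, with or without 1 μM lapatinib, on cells plated 24 h earlier at 5000 per well.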
For orientation: In ATP-based viability assays light output follows the ATP content of the culture.

Data set [2] has as its system BT474. The data set is described as above. To be noted: Homo sapiens, BT-474; for inhibition at 5 µM: test sample 5 μM, 72 hours, read-out: Inhibitory Rate % BT474. The procedure, abridged: as §1
The subject of data set [3] is MDA-MB-361. The description is as above. Conditions: Homo sapiens, test sample 5 μM, 72 hours, read-out: Inhibitory Rate % MDA-MB-361. The procedure, abridged:
as §1

In data set [4] the test system is MDA-MB-453. The data set is described as above. Conditions: Homo sapiens, test sample 5 μM, 72 hours, read-out: Inhibitory Rate % MDA-MB-453. The procedure, abridged: as §1
Data set [5] relates to SK-BR3. The data set is described as above. Conditions: Homo sapiens, SK-BR-3; test sample 5 μM, 72 hours; read-out: Inhibitory Rate % SK-BR3. The essentials:
as §1

Data set [6] deals with tumor cells and normal cells (12 kinds of cells). The data set is described as follows: Extended test against tumor cell lines, statements on the whole panel. Conditions: for inhibition of tumor cells versus cytotoxicity to normal cells: 12 kinds of cells, 0.016-4 μM, 72 hours. The method, then: The compounds of Examples 36/37/40/47/49 were used to carry out extended test against tumor cell lines, wherein 12 kinds of cells were selected, including liver cancer cells, gastric cancer cells, pancreatic cancer cells, colorectal cancer cells, lung cancer cells and normal cells, which were shown in Table 12:
A 100 mm culture dish with overgrown adherent cells was digested with 1 ml 0.25% trypsin (GIBCO) at 37° C. for 5 min, and the reaction was terminated with 2 ml culture medium (containing 10% FBS, GIBCO). The cells were scattered and collected, after counting, diluted to 1×10^5 cells/ml, and seeded into a 96-well plate at 50 μl/well, 5000 cells/well, excluding the peripheral circle of wells in which no cell was added, but PBS was added, 54 wells in total, and then incubated at 37° C. for 24 hours for adhering.
The test sample was diluted to final concentration of 4, 1, 0.25, 0.063, 0.016 μM, culture medium was filled in control well, 3 parellel wells were set for each concentration, 50 μl each well, followed by incubation at 37° C. for 72 hours.
3) Test after incubation at 37° C. for 72 hours: 50 μL of ATPlite kitsubstrate solution was added in each well, and vibrated for 3 min, followed by placing aside in darkness for 10 min, and then supernatant 100 μl/well was taken and placed on a luminescence test plate; the luminescence test plate that has been fully incubated was placed in a luminescence test instrument, to read luminescence value.
Cell survival rate (%)=Experimental group RLU/control group RLU×100%. The experimental data were subjected to data analysis and processing by utilizing GraphPad software.

Data set [7] has as its system six human breast cancer cell strains. Put plainly: Antitumor activity evaluation, statements on the whole panel. To be noted: compound alone. From the text:
In antitumor activity evaluation, six human breast cancer cell strains are selected, including BT474, SK-BR3 which are human breast cancer cell strains sensitive to lapatinib, BT/Lap^R1.0, SK/Lap^R1.0 which are human breast cancer cell strains with secondary resistance to lapatinib, MDA-MB-361, MDA-MB-453 which are human breast cancer cell strains with natural resistance tolapatinib.
Antitumor bioactivity evaluation of the compounds of Examples according to the method described below
Cells plating: a 100 mm culture dish with overgrown adherent cells was digested with 1 ml 0.25% trypsin (GIBCO) at 37° C. for 5 min, and the reaction was terminated with 2 ml culture medium (containing 10% FBS, GIBCO). The cells were scattered and collected, after counting, diluted to 1×10^5 cells/ml, and seeded into a 96-well plate at 50 μl/well, 5000 cells/well, excluding the peripheral circle of wells in which no cell was added, but PBS was added, 60 wells in total, and then incubated at 37° C. for 24 hours for adhering.
Addition of the compound and lapatinib: the test sample was diluted to a final concentration of 5 μM, and the culture medium with the corresponding compound solvent concentration was filled in the control well, the compound solvent concentration was kept consistent in each well, 5 parellel wells were set for each concentration, 25 μl each well, 25 μl culture medium (in combined group, 25 μl lapatinib was added till a final concentration of 1 μM) supplemented, followed by incubation at 37° C. for 72 hours.
Test after incubation at 37° C. for 72 hours: 50 μL of ATPlite kit substrate solution was added in each well, and vibrated for 3 min, followed by placing aside in darkness for 10 min, and then supernatant 100 μl/well was taken and placed on aluminescence test plate; the luminescence test plate that has been fully incubated was placed in a luminescence test instrument, to read luminescence value.
1. Cell survival rate (%)=Experimental group RLU/control group RLU×100%. The experimental data were subjected to data analysis and processing by utilizing GraphPad software.

Take `CSc1nccc(N2CCC(N(C)Cc3ccc(C#N)cc3)CC2)n1` [Example 36, N-methyl-N-(4-cyanobenzyl)-N-[1-(2-methylthiopyrimidin-4-yl)piperidin-4-yl]amine]: the inhibition at 5 µM in data set [1] was determined as 86.1%; in data set [2], 75.5%; in data set [3] it was 46.9%; in data set [4] it was 82.4%; in data set [5], 83.4%. Inhibition in data set [2] was half-maximal at 1410 nM (IC50). Besides, the “inhibition of tumor cells versus cytotoxicity to normal cells” value in data set [6] is “certain inhibition and cytotoxicity to either tumor cells or normal cells, without significant difference”. Also, in data set [7], the “growth inhibition to the six human breast cancer cell strains” value (shortened to “growth inhibition”) is listed as “relatively significant growth inhibition”.
For the compound `CSc1nccc(N2CCC(N(C)Cc3c(F)cccc3Cl)CC2)n1` [Example 37, N-methyl-N-(2-fluoro-6-chlorobenzyl)-N-[1-(2-methylthiopyrimidin-4-yl)piperidin-4-yl]amine], the inhibition at 5 µM in data set [1] turned out to be 78.3%; in data set [2], 75.5%; in data set [3] it was 55.9%; in data set [4] it was 84.2%; in data set [5], 78.9%. This compound came in with an IC50 in data set [2] of 1040 nM. Besides, the “inhibition of tumor cells versus cytotoxicity to normal cells” value in data set [6] was “slightly stronger inhibition to liver cancer than that to other tumor cells, and exhibited cytotoxicity to normal cells lower than inhibition to tumor cells”. In addition, in data set [7], the “growth inhibition” value was “relatively significant growth inhibition”.
With `CSc1nccc(N2CCC(N(C)Cc3ccc(Cl)cc3Cl)CC2)n1` [Example 40, N-methyl-N-(2,4-dichlorobenzyl)-N-[1-(2-methylthiopyrimidin-4-yl)piperidin-4-yl]amine], the inhibition at 5 µM came to 80.7% in data set [1]; 74.2% in data set [2]; 64.1% in data set [3]; 68.7% in data set [4]; 87.6% in data set [5]. This compound also displayed a half-inhibitory concentration (IC50) in data set [2] of 1620 nM. Besides, in data set [6], the “inhibition of tumor cells versus cytotoxicity to normal cells” value was “slightly stronger inhibition to liver cancer than that to other tumor cells, and exhibited cytotoxicity to normal cells lower than inhibition to tumor cells”. Besides, in data set [7], the “growth inhibition” value is “relatively significant growth inhibition”.
Regarding `CSc1nccc(N2CCC(N(C)Cc3ccccc3Cl)CC2)n1` [Example 47, N-methyl-N-(2-chlorobenzyl)-N-[1-(2-methylthiopyrimidin-4-yl)piperidin-4-yl]amine], the inhibition at 5 µM came to 16.6% in data set [1]; 60.4% in data set [2]; 27.7% in data set [3]; 66.2% in data set [4]; 31.7% in data set [5]. For the same compound, the IC50 in data set [2] turned out to be 1990 nM. The “inhibition of tumor cells versus cytotoxicity to normal cells” value in data set [6] is “slightly stronger inhibition to liver cancer than that to other tumor cells, and exhibited cytotoxicity to normal cells lower than inhibition to tumor cells”. Further, the “effect compared with the compounds of other Examples” value in data set [6] (Examples 36/37/40/47/49 compared) is given as “effect superior to that of the compounds of other Examples”. The “growth inhibition” value in data set [7] is “relatively significant growth inhibition”.
`CSc1nccc(N2CCC(N(C)Cc3c(Cl)cccc3Cl)CC2)n1` [Example 49, N-methyl-N-(2,6-dichlorobenzyl)-N-[1-(2-methylthiopyrimidin-4-yl)piperidin-4-yl]amine]: the inhibition at 5 µM in data set [1] came to 13.5%; in data set [2], 61.5%; in data set [3] it was 30.1%; in data set [4], 68.9%; in data set [5], 19.7%. Moreover, in data set [2], the IC50 stood at 780 nM. The “inhibition of tumor cells versus cytotoxicity to normal cells” value in data set [6] was “certain inhibition and cytotoxicity to either tumor cells or normal cells, without significant difference”.
